In US12398132B2, “Derivatives of 4-(imidazo[1,2-a]pyridin-3-yl)-n-(pyridinyl)pyrimidin-2-amine as therapeutic agents” (AUCENTRA THERAPEUTICS PTY LTD, priority 2019, dated 2025):
Where two headings read alike, the source gives them in different places.

How the values were obtained:
CDK4/D1 = CDK4/D1 (Homo sapiens, UniProt P11802); test: ADP Glo kinase assay, CDK4/D1; format: biochemical; conditions: CDK4D1; for remaining activity at 10 µM: compound at 10 μM, read-out: residual enzymatic activity (%) at 10 μM; for remaining activity at 1 µM: compound at 1 μM (values marked *), read-out: residual enzymatic activity (%) at 1 μM*
Sequence of CDK4/D1 (P11802 whole entry, species assumed): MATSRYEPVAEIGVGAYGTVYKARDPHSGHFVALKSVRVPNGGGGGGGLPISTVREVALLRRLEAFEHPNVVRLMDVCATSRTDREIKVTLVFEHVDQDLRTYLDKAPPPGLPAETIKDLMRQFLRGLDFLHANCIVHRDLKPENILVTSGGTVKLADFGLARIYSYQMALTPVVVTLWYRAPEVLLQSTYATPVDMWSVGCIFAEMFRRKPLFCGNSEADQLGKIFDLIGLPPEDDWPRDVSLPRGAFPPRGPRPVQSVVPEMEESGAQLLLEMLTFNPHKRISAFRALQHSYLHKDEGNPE
Sequence of CDK4/D1 (P24385 whole entry partner, species assumed): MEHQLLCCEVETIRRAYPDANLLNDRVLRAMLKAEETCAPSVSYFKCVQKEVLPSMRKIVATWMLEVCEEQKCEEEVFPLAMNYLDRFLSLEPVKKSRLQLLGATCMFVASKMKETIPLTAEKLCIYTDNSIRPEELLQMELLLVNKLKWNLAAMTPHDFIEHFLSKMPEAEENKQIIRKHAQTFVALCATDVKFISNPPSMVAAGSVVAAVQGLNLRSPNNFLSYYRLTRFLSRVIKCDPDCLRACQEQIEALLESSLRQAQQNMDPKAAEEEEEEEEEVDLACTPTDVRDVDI
Protocol: Inhibition of FLT3(WT), FLT3(ITD) and FLT3(D835Y) and CDKs were determined using ADP Glo Kinase assays (Promega Corporation, Madison, WI, USA). […] Similarly, kinase reaction for CDK4/D1 and CDK6/D3 was performed with reaction buffer (40 nM Tris base pH 7.5, 20 mM MgCl2, 0.4 mM DTT), 0.1 mg/ml BSA and RB-CTF substrate (retinoblastoma protein1 C-terminal fraction). For CDK9/CyclinT1, the kinase reaction was performed with the standard assay buffer and Kinase Dilution Buffer and RBER-IRStide substrate. Half-maximal inhibition (IC50) values were calculated using a 4-parameter logistic non-linear regression model with Graphpad prism (Version 6.0). Apparent inhibition constants (Ki) values were calculated from Km (ATP) and IC50 values for the respective kinases.

CDK6/D3 = CDK6/D3 (Homo sapiens, UniProt Q00534); test: ADP Glo kinase assay, CDK6/D3; format: biochemical; conditions: CDK6D3; for remaining activity at 10 µM: compound at 10 μM, read-out: residual enzymatic activity (%) at 10 μM; for remaining activity at 1 µM: compound at 1 μM (values marked *), read-out: residual enzymatic activity (%) at 1 μM*
Sequence of CDK6/D3 (Q00534 whole entry, species assumed): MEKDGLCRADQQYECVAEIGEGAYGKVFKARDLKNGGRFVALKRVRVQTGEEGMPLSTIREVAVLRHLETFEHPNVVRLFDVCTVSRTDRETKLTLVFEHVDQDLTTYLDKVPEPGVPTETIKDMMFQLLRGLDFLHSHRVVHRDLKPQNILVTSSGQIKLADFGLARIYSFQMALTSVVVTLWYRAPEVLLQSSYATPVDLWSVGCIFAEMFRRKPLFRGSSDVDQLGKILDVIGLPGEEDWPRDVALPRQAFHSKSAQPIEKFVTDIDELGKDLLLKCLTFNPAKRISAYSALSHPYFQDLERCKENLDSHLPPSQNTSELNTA
Sequence of CDK6/D3 (P30281 whole entry partner, species assumed): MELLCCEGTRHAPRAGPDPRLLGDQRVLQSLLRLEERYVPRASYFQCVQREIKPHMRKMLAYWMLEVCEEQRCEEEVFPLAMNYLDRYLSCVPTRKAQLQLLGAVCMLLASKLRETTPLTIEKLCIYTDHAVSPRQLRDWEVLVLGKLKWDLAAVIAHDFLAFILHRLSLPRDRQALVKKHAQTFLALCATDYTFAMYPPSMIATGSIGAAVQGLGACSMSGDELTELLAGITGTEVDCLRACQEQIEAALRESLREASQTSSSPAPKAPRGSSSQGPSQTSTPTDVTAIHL

CDK9/CyclinT1 = CDK9/CyclinT1 (Homo sapiens, UniProt P50750); test: ADP Glo kinase assay, CDK9/CyclinT1; format: biochemical; conditions: CDK9T1; for Ki: apparent Ki calculated from Km (ATP) and IC50, read-out: CDK inhibition Ki; for remaining activity at 1 µM: compound at 1 μM (values marked *), read-out: residual enzymatic activity (%) at 1 μM*
Sequence of CDK9/CyclinT1 (P50750 whole entry, species assumed): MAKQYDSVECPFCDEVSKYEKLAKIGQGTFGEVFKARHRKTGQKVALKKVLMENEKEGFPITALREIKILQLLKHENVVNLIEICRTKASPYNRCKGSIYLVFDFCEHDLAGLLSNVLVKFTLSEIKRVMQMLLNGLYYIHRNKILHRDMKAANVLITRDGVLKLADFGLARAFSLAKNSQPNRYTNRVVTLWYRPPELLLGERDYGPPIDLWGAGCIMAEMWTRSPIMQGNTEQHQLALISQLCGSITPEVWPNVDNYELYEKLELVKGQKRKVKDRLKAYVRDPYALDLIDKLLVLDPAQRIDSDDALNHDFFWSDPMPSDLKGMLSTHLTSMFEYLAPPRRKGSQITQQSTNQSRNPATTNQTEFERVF
Sequence of CDK9/CyclinT1 (O60563 whole entry partner, species assumed): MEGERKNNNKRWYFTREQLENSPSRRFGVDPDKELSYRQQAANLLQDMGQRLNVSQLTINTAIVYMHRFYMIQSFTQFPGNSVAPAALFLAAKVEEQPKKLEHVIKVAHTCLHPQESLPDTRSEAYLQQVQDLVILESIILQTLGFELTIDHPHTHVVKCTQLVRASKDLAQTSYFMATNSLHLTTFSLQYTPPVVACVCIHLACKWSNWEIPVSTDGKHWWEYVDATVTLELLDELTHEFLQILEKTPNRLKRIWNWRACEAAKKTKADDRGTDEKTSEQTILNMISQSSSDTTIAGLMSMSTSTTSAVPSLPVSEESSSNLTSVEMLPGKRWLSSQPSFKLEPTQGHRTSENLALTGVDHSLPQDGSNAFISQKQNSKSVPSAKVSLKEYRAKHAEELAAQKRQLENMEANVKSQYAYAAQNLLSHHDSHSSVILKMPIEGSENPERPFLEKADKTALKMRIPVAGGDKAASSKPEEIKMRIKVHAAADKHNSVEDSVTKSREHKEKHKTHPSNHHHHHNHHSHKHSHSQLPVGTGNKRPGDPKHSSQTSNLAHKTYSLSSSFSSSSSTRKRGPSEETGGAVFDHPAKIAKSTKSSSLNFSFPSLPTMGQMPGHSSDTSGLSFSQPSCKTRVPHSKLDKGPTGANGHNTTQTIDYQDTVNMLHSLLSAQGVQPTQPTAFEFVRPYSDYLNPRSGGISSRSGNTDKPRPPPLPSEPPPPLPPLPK

MV-4-11 = test: Proliferation assay (resazurin/MTT), MV-4-11; format: cell-based; conditions: Homo sapiens, MV4-11, read-out: 72 h Growth inhibition GI50, MV-4-11 cells
U937 = test: Proliferation assay (resazurin/MTT), U937; format: cell-based; conditions: Homo sapiens, U-937, read-out: 72 h Growth inhibition GI50, U937 cells
CDK1B = CDK1B (Homo sapiens, UniProt P06493)
Sequence of CDK1B (P06493 whole entry): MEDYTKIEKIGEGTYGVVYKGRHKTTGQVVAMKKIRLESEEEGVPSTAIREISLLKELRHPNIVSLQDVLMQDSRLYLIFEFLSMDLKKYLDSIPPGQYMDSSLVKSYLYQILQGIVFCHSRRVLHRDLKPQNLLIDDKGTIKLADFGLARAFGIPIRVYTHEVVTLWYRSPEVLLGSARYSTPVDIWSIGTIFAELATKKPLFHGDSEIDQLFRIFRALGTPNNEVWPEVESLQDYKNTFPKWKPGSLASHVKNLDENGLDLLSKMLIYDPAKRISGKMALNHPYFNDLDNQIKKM
Sequence of CDK1B (P14635 whole entry partner): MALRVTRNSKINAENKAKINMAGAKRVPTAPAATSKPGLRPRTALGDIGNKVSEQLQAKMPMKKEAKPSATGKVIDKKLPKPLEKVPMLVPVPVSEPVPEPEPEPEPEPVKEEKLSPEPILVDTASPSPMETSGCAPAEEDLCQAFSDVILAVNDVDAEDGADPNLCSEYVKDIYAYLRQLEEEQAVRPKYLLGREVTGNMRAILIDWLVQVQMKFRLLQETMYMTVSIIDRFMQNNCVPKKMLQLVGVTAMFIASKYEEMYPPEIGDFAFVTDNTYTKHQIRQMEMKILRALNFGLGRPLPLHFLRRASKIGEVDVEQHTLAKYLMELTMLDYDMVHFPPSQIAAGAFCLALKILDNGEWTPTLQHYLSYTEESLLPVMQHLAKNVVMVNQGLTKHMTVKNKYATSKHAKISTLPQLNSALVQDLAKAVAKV

CDK2E1 = CDK2E1 (Homo sapiens, UniProt P24941); conditions: 1 µM
CDK7HMAT1 = CDK7HMAT1 (Homo sapiens, UniProt P50613);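 note: kinase activity measured with an ADP-Glo luminescent kinase assay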
Sequence of CDK7HMAT1 (P50613 whole entry): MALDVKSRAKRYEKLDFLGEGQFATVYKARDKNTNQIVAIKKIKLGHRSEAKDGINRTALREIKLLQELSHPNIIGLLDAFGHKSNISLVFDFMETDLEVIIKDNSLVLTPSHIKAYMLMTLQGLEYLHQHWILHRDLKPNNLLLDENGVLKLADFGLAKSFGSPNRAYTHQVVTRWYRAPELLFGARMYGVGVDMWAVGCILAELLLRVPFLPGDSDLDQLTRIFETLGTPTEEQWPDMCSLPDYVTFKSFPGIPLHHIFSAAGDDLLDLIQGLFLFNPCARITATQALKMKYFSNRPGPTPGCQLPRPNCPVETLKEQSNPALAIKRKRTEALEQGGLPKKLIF
Sequence of CDK7HMAT1 (P51946 whole entry partner): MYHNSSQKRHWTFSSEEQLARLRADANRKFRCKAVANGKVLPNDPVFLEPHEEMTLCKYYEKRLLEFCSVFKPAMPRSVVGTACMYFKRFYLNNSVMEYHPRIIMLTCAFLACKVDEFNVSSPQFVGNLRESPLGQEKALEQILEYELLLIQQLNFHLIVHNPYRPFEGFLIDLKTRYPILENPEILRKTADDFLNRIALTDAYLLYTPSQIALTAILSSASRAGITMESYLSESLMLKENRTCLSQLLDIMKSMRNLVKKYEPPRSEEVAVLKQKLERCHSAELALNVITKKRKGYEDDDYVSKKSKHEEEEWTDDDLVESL
Sequence of CDK7HMAT1 (P51948 whole entry partner): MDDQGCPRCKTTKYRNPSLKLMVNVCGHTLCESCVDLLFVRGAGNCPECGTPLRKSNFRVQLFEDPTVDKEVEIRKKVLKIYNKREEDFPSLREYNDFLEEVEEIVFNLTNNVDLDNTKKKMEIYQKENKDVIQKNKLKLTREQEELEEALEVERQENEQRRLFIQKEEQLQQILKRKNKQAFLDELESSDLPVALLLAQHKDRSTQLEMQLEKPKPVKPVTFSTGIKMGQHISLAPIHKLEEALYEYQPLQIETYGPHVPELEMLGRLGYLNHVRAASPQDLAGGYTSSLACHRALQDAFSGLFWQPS

| Compound | remaining activity at 10 µM (CDK4/D1) | remaining activity at 10 µM (CDK6/D3) | remaining activity at 10 µM (CDK9/CyclinT1; compound at 10 μM, read-out: residual enzymatic activity (%) at 10 μM) | GI50 (MV-4-11) | GI50 (U937) | activity (CDK1B; 10 µM) | activity (CDK2E1) | activity (CDK7HMAT1; 10 µM) | remaining activity at 1 µM (CDK4/D1) | remaining activity at 1 µM (CDK6/D3) | Ki (CDK9/CyclinT1) | activity (CDK1B; 1 µM) | activity (CDK7HMAT1; 1 µM) | remaining activity at 1 µM (CDK9/CyclinT1) |
| --- | --- | --- | --- | --- | --- | --- | --- | --- | --- | --- | --- | --- | --- | --- |
| COc1ncc(-c2ccc3ncc(-c4ccnc(Nc5ccc(N6CCN(C(C)=O)CC6)cn5)n4)n3c2)cn1 [Cmpd 19, 1-(4-(6-((4-(6-(2-Methoxypyrimidin-5-yl)imidazo[1,2-a]pyridin-3-yl)pyrimidin-2-yl)amino)pyridin-3-yl)piperazin-1-yl)ethan-1-one] | 53% | 65% | 33% | 17 nM | 6710 nM | 96% | 82% | 54% | – | – | – | – | – | – |
| CC(=O)N1CCN(c2ccc(Nc3nccc(-c4cnc5ccc(-c6c[nH]c7ncccc67)cn45)n3)nc2)CC1 [Cmpd 42, 1-(4-(6-((4-(6-(1H-pyrrolo[2,3-b]pyridin-3-yl)imidazo[1,2-a]pyridin-3-yl)pyrimidin-2-yl)amino)pyridin-3-yl)piperazin-1-yl)ethan-1-one] | – | – | – | 5 nM | 1560 nM | – | 46% | – | 52% | 64% | 607 nM | 95% | 80% | – |
| CC(=O)N1CCN(c2ccc(Nc3nccc(-c4cnc5ccc(-c6ccccc6)cn45)n3)nc2)CC1 [Cmpd 14, 1-(4-(6-((4-(6-Phenylimidazo[1,2-a]pyridin-3-yl)pyrimidin-2-yl)amino)pyridin-3-yl)piperazin-1-yl)ethan-1-one] | 69% | 92% | – | 7 nM | 664 nM | 94% | 56% | 78% | – | – | 699 nM | – | – | – |
| CC(=O)N1CCN(c2ccc(Nc3nccc(-c4cnc5ccc(-c6coc7ccccc67)cn45)n3)nc2)CC1 [Cmpd 33, 1-(4-(6-((4-(6-(Benzofuran-3-yl)imidazo[1,2-a]pyridin-3-yl)pyrimidin-2-yl)amino)pyridin-3-yl)piperazin-1-yl)ethan-1-one] | – | – | – | 3 nM | 1860 nM | – | 84% | – | 60% | 79% | – | 98% | 88% | 72% |
| CC(=O)N1CCN(c2ccc(Nc3nccc(-c4cnc5ccc(-c6c[nH]c7ccccc67)cn45)n3)nc2)CC1 [Cmpd 41, 1-(4-(6-((4-(6-(1H-Indol-3-yl)imidazo[1,2-a]pyridin-3-yl)pyrimidin-2-yl)amino)pyridin-3-yl)piperazin-1-yl)ethan-1-one] | – | – | – | 1 nM | 1280 nM | – | 81% | – | 54% | 89% | – | 98% | 79% | 42% |
| CC(=O)N1CCN(c2ccc(Nc3nccc(-c4cnc5ccc(-c6cn(C)c7ccccc67)cn45)n3)nc2)CC1 [Cmpd 40, 1-(4-(6-((4-(6-(1-Methyl-1H-indol-3-yl)imidazo[1,2-a]pyridin-3-yl)pyrimidin-2-yl)amino)pyridin-3-yl)piperazin-1-yl)ethan-1-one] | – | – | – | 1 nM | 1340 nM | – | 93% | – | 55% | 78% | – | 97% | 104% | 82% |
| CC(=O)N1CCN(c2ccc(Nc3nccc(-c4cnc5ccc(-c6cc7ccccc7[nH]6)cn45)n3)nc2)CC1 [Cmpd 37, 1-(4-(6-((4-(6-(1H-Indol-2-yl)imidazo[1,2-a]pyridin-3-yl)pyrimidin-2-yl)amino)pyridin-3-yl)piperazin-1-yl)ethan-1-one] | – | – | – | 10 nM | 2420 nM | – | 91% | – | 78% | 78% | – | 96% | 103% | 39% |
